Measured values from the NIST ThermoML archive (doi:10.1021/je800110r).

Details: 303.16 K, Liquid, Vibrating tube method

CCCCCCCCCC [decane]
Details	mass density [kg/m3]
14288 kPa	733.4
14319 kPa	733.4
14353 kPa	733.4
14376 kPa	733.5
14407 kPa	733.3
14434 kPa	733.6
14457 kPa	733.5
14493 kPa	733.5
14524 kPa	733.5
14547 kPa	733.5
14586 kPa	733.6
14617 kPa	733.7
14640 kPa	733.8
14673 kPa	733.7
14705 kPa	733.6
14734 kPa	733.7
14767 kPa	733.7
14792 kPa	733.7
14822 kPa	733.6
14848 kPa	733.7
14871 kPa	733.8
14896 kPa	733.8
14923 kPa	733.7
14942 kPa	734
14976 kPa	734
14997 kPa	733.8
15016 kPa	733.9
15041 kPa	733.8
15066 kPa	734
15088 kPa	733.9
15110 kPa	734
15133 kPa	734
15151 kPa	734
15180 kPa	734
15209 kPa	734.1
15228 kPa	734.1
15257 kPa	734.1
15283 kPa	733.9
15302 kPa	734.1
15329 kPa	734.1
15355 kPa	734.2
15378 kPa	734.3
15404 kPa	734.2
15434 kPa	734.3
15454 kPa	734.3
15481 kPa	734.3
15504 kPa	734.2
15524 kPa	734.3
15557 kPa	734.3
15584 kPa	734.2
15605 kPa	734.4
15639 kPa	734.4
15669 kPa	734.3
15690 kPa	734.4
15720 kPa	734.3
15744 kPa	734.5
15769 kPa	734.4
15790 kPa	734.3
15814 kPa	734.5
15838 kPa	734.6
15867 kPa	734.4
15889 kPa	734.5
15918 kPa	734.5
15947 kPa	734.5
15968 kPa	734.6
15997 kPa	734.6
16029 kPa	734.6
16050 kPa	734.6
16076 kPa	734.7
16098 kPa	734.8
16123 kPa	734.7
16149 kPa	734.7
16172 kPa	734.7
16206 kPa	734.6
16237 kPa	734.7
16261 kPa	734.7
16288 kPa	734.7
16311 kPa	734.9
16331 kPa	734.8
16355 kPa	734.9
16372 kPa	734.9
16395 kPa	734.8
16413 kPa	734.8
16443 kPa	734.9
16470 kPa	735
16490 kPa	735.1
16511 kPa	734.9
16531 kPa	735.1
16553 kPa	735
16574 kPa	734.9
16600 kPa	735
16618 kPa	735.1
16642 kPa	735
16661 kPa	734.8
16691 kPa	735.2
16715 kPa	735
16733 kPa	735.2
16758 kPa	735.1
16785 kPa	735.2
16800 kPa	735.2
16831 kPa	735.2
16853 kPa	735.2
16878 kPa	735.1
16902 kPa	735.2
16924 kPa	735.2
16940 kPa	735.2
16968 kPa	735.3
16994 kPa	735.3
17016 kPa	735.3
17041 kPa	735.4
17063 kPa	735.4
17084 kPa	735.4
17107 kPa	735.3
17129 kPa	735.4
17149 kPa	735.5
17181 kPa	735.4
17207 kPa	735.3
17225 kPa	735.6
17252 kPa	735.5
17278 kPa	735.6
17298 kPa	735.5
17331 kPa	735.5
17354 kPa	735.5
17377 kPa	735.5
17400 kPa	735.5
17419 kPa	735.5
17449 kPa	735.7
17479 kPa	735.7
17503 kPa	735.7
17533 kPa	735.6
17557 kPa	735.7
17581 kPa	735.7
17601 kPa	735.8
17625 kPa	735.8
17645 kPa	735.7
17673 kPa	735.9
17693 kPa	735.8
17724 kPa	735.9
17745 kPa	735.8
17773 kPa	735.9
17801 kPa	735.9
17825 kPa	735.9
17850 kPa	735.9
17878 kPa	735.9
17909 kPa	736
17931 kPa	735.9
17959 kPa	736
17977 kPa	736.1
18013 kPa	736
18041 kPa	736.1
18063 kPa	736.1
18092 kPa	736.1
18122 kPa	736
18144 kPa	736.1
18169 kPa	736.2
18195 kPa	736.2
18227 kPa	736.2
18253 kPa	736.1
18275 kPa	736.3
18304 kPa	736.2
18334 kPa	736.3
18356 kPa	736.2
18390 kPa	736.2
18413 kPa	736.4
18436 kPa	736.4
18466 kPa	736.3
18489 kPa	736.3
18523 kPa	736.4
18546 kPa	736.4
18569 kPa	736.4
18595 kPa	736.4
18614 kPa	736.5
18641 kPa	736.5
18664 kPa	736.5
18699 kPa	736.5
18738 kPa	736.5
18762 kPa	736.5
18789 kPa	736.5
18820 kPa	736.6
18843 kPa	736.6
18883 kPa	736.7
18914 kPa	736.5
18938 kPa	736.8
18962 kPa	736.7
18998 kPa	736.7
19031 kPa	736.7
19060 kPa	736.7
19085 kPa	736.7
19122 kPa	736.9
19159 kPa	736.8
19184 kPa	736.8
19223 kPa	736.9
19247 kPa	736.9
19269 kPa	736.8
19302 kPa	736.9
19335 kPa	737
19360 kPa	737
19383 kPa	737
19412 kPa	737
19434 kPa	737
19456 kPa	737
19477 kPa	736.9
19498 kPa	737.1
19522 kPa	737.1
19544 kPa	737.2
19566 kPa	737.2
19587 kPa	737.1
19612 kPa	737
19634 kPa	737.2
19656 kPa	737.1
19678 kPa	737.2
19703 kPa	737.3
19725 kPa	737.3
19748 kPa	737.3
19771 kPa	737.2
19794 kPa	737.2
19817 kPa	737.2
19841 kPa	737.2
19862 kPa	737.2
19880 kPa	737.3
19906 kPa	737.3
19925 kPa	737.4
19938 kPa	737.4
19956 kPa	737.4
19976 kPa	737.4
19997 kPa	737.4
20013 kPa	737.5
20034 kPa	737.3
20052 kPa	737.5
20073 kPa	737.5
20089 kPa	737.5
20104 kPa	737.4
20123 kPa	737.5
20143 kPa	737.6
20164 kPa	737.5
20180 kPa	737.6
20201 kPa	737.5
20222 kPa	737.6
20238 kPa	737.6
20259 kPa	737.6
20280 kPa	737.6
20293 kPa	737.7
20307 kPa	737.6
20323 kPa	737.7
20347 kPa	737.7
20369 kPa	737.7
20396 kPa	737.7
20420 kPa	737.6
20439 kPa	737.7
20461 kPa	737.7
20477 kPa	737.6
20501 kPa	737.8
20529 kPa	737.7
20545 kPa	737.7
20567 kPa	737.8
20586 kPa	737.9
20606 kPa	737.8
20625 kPa	737.8
20650 kPa	737.9
20667 kPa	737.9
20683 kPa	737.9
20706 kPa	738
20728 kPa	737.9
20745 kPa	738
20764 kPa	738
20787 kPa	738.1
20810 kPa	738
20827 kPa	738
20846 kPa	738
20863 kPa	738
20880 kPa	738
20897 kPa	738
20911 kPa	738.1
